Where “and” joins values, the source holds several entries; their conditions need not be identical. Equal values may be shown once.
Legend:
Type in all cases: cell-based, human
[1] = tested on: TGK; experiment: TGK immunolabeling in situ in NHEK cultures (Example 3); details: 72 hours; for TGK Fluorescence intensity/Number of cells: individual values (n=3); for TGK expression in the NHEK cultures (in words): activity higher than CaCl2 reference as by 10 μg/ml
Procedure: Normal human epidermal keratinocytes (NHEK); reference BIOalternatives K341, used at the third passage. Culture conditions: 37° C., 5% CO2 Culture medium: keratinocytesSFM complemented with an epidermal growth factor (EGF) 0.25 ng/ml, a pituitary extract (PE) 25 μg/ml and gentamycin […]. Experiment medium: keratinocytesSFM complemented with gentamycin 25 μg/ml. The keratinocytes have been sowed and cultured to confluence in 96-well plates and then, the medium has been replaced by an experiment medium containing, or not (control test), the tested extract or the reference (CaCl2 at 1.5 mM) and the cells have been incubated for 72 hours. All experimental conditions have been realized with n=3, for each marker. After incubation, the test medium has been withdrawn and the cells have been rinsed, fixed and permeabilized. The cells have been marked with the primary antibodies directed against the considered proteins (TGK). […] In parallel, the nucleuses of the cells have been stained by the Hoechst 33258 (bisbenzimide). The acquisition of the images has been carried out with a high-resolution imaging system, INCell AnalyzerTM 1000 (GE Healthcare). For each well, 5 captures of digitized images have been performed. The labelings have been quantified by measurement of the fluorescence intensity of the proteins divided by the number of nucleuses identified by the Hoechst (integration of the digital data by the software Developer Toolbow 1.5, GE Healthcare).

[2] = tested on: procollagen I; experiment: ELISA of procollagen I release by reconstructed skins in depleted medium; details: reconstructed skins in depleted culture medium, 30 μg/ml and 60 μg/ml, D9
Procedure: (§1) Human skins reconstructed from a culture of keratinocytes sowed on a collagen lattice containing fibroblasts. Depleted culture medium: Epilife and supplements (without IGF-1 and without hydrocortisone)+CaCl2 1.5 mM+vitamin C (50 μg/ml). The reconstructed skins have been placed during the passage at the air-liquid interface (D0) in a 6-well plate in the depleted culture medium containing, or not (deficient control condition), the tested compounds. Afterwards, the reconstructed skins have been cultured for 9 days with the renewal of the culture medium containing, or not, the tested compounds every 2 to 3 days from D0 to D5, and then every day between D5 and D9. In parallel, a culture of the reconstructed skins in a complete medium has been realized, as a control test. The evaluation of the tested compound has been performed: • By histological analysis, by the histological observation of the epidermal thickness after HES (Hematoxylin-Eosin-Saffron) staining, • By RT-qPCR, by analysis of the expression of 16 markers (2 of which are reference genes) selected for their importance in cutaneous ageing, on the mRNAs extracted from the reconstructed skins for each treatment, and • By quantifying the release of MMP-1, MMP-3 and procollagen I in the suspensions of the cultures on D9, by ELISA assay, using ELISA assay kits used according to the instructions of the supplier.

[3] = tested on: MMP-3; experiment: ELISA of MMP-3 release by reconstructed skins in depleted medium; details: reconstructed skins in depleted culture medium, 30 μg/ml and 60 μg/ml, D9
Procedure: as §1

[4] = tested on: reconstructed skins; experiment: Histological analysis (HES) of reconstructed skins in depleted medium; details: 30 μg/ml and 60 μg/ml, 9 days
Procedure: Human skins reconstructed from a culture of keratinocytes sowed on a collagen lattice containing fibroblasts. The keratinocytes are cultured at 37° C., 5% CO2, at the air-liquid interface in one of the following media: Depleted culture medium: Epilife and supplements (without IGF-1 and without hydrocortisone)+CaCl2 1.5 mM+vitamin C (50 μg/ml). The following cultures have been realized: • Untreated reconstructed skins, • Skins reconstructed in a depleted medium, • Skins reconstructed in a depleted medium, each treated by a compound tested hereinabove, at a concentration of 30 μg/ml or 60 μg/ml. […] The evaluation of the tested compound has been performed: • By histological analysis, by the histological observation of the epidermal thickness after HES (Hematoxylin-Eosin-Saffron) staining, • By RT-qPCR, by analysis of the expression of 16 markers (2 of which are reference genes) selected for their importance in cutaneous ageing, on the mRNAs extracted from the reconstructed skins for each treatment, and • By quantifying the release of MMP-1, MMP-3 and procollagen I in the suspensions of the cultures on D9, by ELISA assay, using ELISA assay kits used according to the instructions of the supplier.

[5] = tested on: MMP-1; experiment: ELISA of MMP-1 release by reconstructed skins in depleted medium; details: reconstructed skins in depleted culture medium, 30 μg/ml and 60 μg/ml, D9
Procedure: as §1

[6] = tested on: reconstructed skins; experiment: RT-qPCR of cutaneous ageing markers in reconstructed skins in depleted medium; details: reconstructed skins in deficient medium, 30 μg/ml and 60 μg/ml, dose-dependent
Procedure: as §1, with “fibroblasts. The keratinocytes are cultured at 37° C., 5% CO2, at the air-liquid interface in one of the following media:” for “fibroblasts.”, “μg/ml). The following cultures have been realized: • Untreated reconstructed skins, • Skins reconstructed in a depleted medium, • Skins reconstructed in a depleted medium, each treated by a compound tested hereinabove, at a concentration of 30 μg/ml or 60 μg/ml.” for “μg/ml).”, “test. All experimental conditions have been realized with n=4.” for “test.”

[7] = tested on: TGK; experiment: TGK immunolabeling in situ in NHEK cultures, loosestrife extracts (Example 5); details: 72 hours, 1.5 mM
Procedure: Normal human epidermal keratinocytes (NHEK); reference BIOalternatives K341, used at the third passage.
Culture conditions: 37° C., 5% CO2
Culture medium: keratinocytesSFM complemented with an epidermal growth factor (EGF) 0.25 ng/ml, a pituitary extract (PE) 25 μg/ml and gentamycin 25 μg/ml.
Experiment medium: keratinocytesSFM complemented with gentamycin 25 μg/ml.
The keratinocytes have been sowed and cultured to confluence in 96-well plates and then, the medium has been replaced by an experiment medium containing, or not (control test), the tested extract or the reference (CaCl2 at 1.5 mM) and the cells have been incubated for 72 hours. All experimental conditions have been realized with n=3, for each marker.
After incubation, the test medium has been withdrawn and the cells have been rinsed, fixed and permeabilized. […] The acquisition of the images has been carried out with a high-resolution imaging system, INCell Analyzer™ ([…] (GE Healthcare). For each well, 5 captures of digitized images have been performed. The labelings have been quantified by measurement of the fluorescence intensity of the proteins divided by the number of nucleuses identified by the Hoechst (integration of the digital data by the software Developer Toolbow 1.5, GE Healthcare). […]
The TGK expression is given as the Fluorescence intensity/Number of cells (UA)

Compound: O=C(O)c1cc(O)c(O)c(O)c1 [Gallic acid, gallic acid]
- TGK % Control test ([1]; 0.0003 mg/ml): 285%
- TGK % Stimulation ([1]; 0.0003 mg/ml): 165%
- TGK Fluorescence intensity/Number of cells, Average ([1]; 0.0003 mg/ml): 16260 UA
- TGK Fluorescence intensity/Number of cells ([1]; 0.0003 mg/ml): 18328 UA and 15263 UA and 15730 UA
- TGK % Control test ([1]; 0.01 mg/ml): 688%
- TGK % Stimulation ([1]; 0.01 mg/ml): 588%
- TGK Fluorescence intensity/Number of cells, Average ([1]; 0.01 mg/ml): 42738 UA
- TGK Fluorescence intensity/Number of cells ([1]; 0.01 mg/ml): 47924 UA and 36228 UA and 44065 UA
- TGK % Control test ([1]; 0.03 mg/ml): 1110%
- TGK % Stimulation ([1]; 0.03 mg/ml): 1019%
- TGK Fluorescence intensity/Number of cells, Average ([1]; 0.03 mg/ml): 60518 UA
- TGK Fluorescence intensity/Number of cells ([1]; 0.03 mg/ml): 73870 UA and 53013 UA and 81670 UA
- TGK expression in the NHEK cultures (in words) [1]: induce the TGK expression in the NHEK cultures in a dose-dependent fashion

Compound: O=C1OC[C@H]2OC(=O)c3cc(O)c(O)c(O)c3-c3c(O)c(O)c(O)c4c3C(=O)O[C@H]([C@H]3OC(=O)c5c-4c(O)c(O)c(O)c5[C@@H]3O)[C@@H]2OC(=O)c2cc(O)c(O)c(O)c2-c2c1cc(O)c(O)c2O [Vescalagin]
- release of procollagen I (ELISA) [2]: No modification
- release of MMP-3 (ELISA) [3]: major and significant decrease
- epidermis/dermis cohesion (HES) [4]: Partial recovery of the epidermis/dermis cohesion
- histology (HES) [4]: improvement of their histology
- release of MMP-1 (ELISA) [5]: major and significant decrease
- TGK % Control test ([1]; 0.0011 mg/ml): 287%
- TGK % Stimulation ([1]; 0.0011 mg/ml): 187%
- TGK Fluorescence intensity/Number of cells, Average ([1]; 0.0011 mg/ml): 17722 UA
- TGK Fluorescence intensity/Number of cells ([1]; 0.0011 mg/ml): 22033 UA and 16688 UA and 14446 UA
- TGK % Control test ([1]; 0.003 mg/ml): 589%
- TGK % Stimulation ([1]; 0.003 mg/ml): 589%
- TGK Fluorescence intensity/Number of cells, Average ([1]; 0.003 mg/ml): 42460 UA
- TGK Fluorescence intensity/Number of cells ([1]; 0.003 mg/ml): 32859 UA and 40124 UA and 54396 UA
- TGK % Control test ([1]; 0.01 mg/ml): 702%
- TGK % Stimulation ([1]; 0.01 mg/ml): 602%
- TGK Fluorescence intensity/Number of cells, Average ([1]; 0.01 mg/ml): 43284 UA
- TGK Fluorescence intensity/Number of cells ([1]; 0.01 mg/ml): 27714 UA and 45383 UA and 98755 UA
- TGK expression in the NHEK cultures (in words) [1]: induce the TGK expression in the NHEK cultures in a dose-dependent fashion
- expression of the inflammation markers (RT-qPCR) [6]: decrease of the expression of IL1B and PTGS2 to a lesser extent
- expression of the marker of the extracellular matrix COLIA1 (RT-qPCR) [6]: increase of the expression of the marker of the extracellular matrix COLIA1
- expression of the markers involved in the degradation of the extracellular matrix (RT-qPCR) [6]: decrease of the expression of the genes MMP1, MMP3 and TFPI2
- expression of the markers of the cells of the basal layer (RT-qPCR) [6]: increase of the marker of the cell cycle MKI67
- expression of the more tardive markers of the differentiation of the keratinocytes (RT-qPCR) [6]: decrease of the expression of TGM1 and CDSN

Compound: [Ca+2].[Cl-].[Cl-] [CaCl2, reference compound]
- TGK expression Average (Fluorescence intensity/Number of cells) [7]: 69610 UA
- TGK expression, Control test % [7]: 316%
- TGK % Control test ([1]; 1.5 mM): 473%
- TGK % Stimulation ([1]; 1.5 mM): 373%
- TGK Fluorescence intensity/Number of cells, Average ([1]; 1.5 mM): 29160 UA
- TGK Fluorescence intensity/Number of cells ([1]; 1.5 mM): 24066 UA and 30013 UA and 23527 UA
- TGK Fluorescence intensity/Number of cells ([1]; 1.5 mM, listed as Ca): 22987 UA and 24146 UA and 32180 UA
- TGK % Control test ([1]; 1.5 mM, listed as Ca): 425%
- TGK % Stimulation ([1]; 1.5 mM, listed as Ca): 325%
- TGK Fluorescence intensity/Number of cells, Average ([1]; 1.5 mM, listed as Ca): 20404 UA

Compound: O=C1OC[C@H]2OC(=O)c3cc(O)c(O)c(O)c3-c3c(O)c(O)c(O)c4c3C(=O)O[C@H]([C@H]3OC(=O)c5c-4c(O)c(O)c(O)c5[C@H]3O)[C@@H]2OC(=O)c2cc(O)c(O)c(O)c2-c2c1cc(O)c(O)c2O [Castalagin]
- TGK % Control test ([1]; 0.0011 mg/ml): 202%
- TGK % Stimulation ([1]; 0.0011 mg/ml): 162%
- TGK Fluorescence intensity/Number of cells, Average ([1]; 0.0011 mg/ml): 16135 UA
- TGK Fluorescence intensity/Number of cells ([1]; 0.0011 mg/ml): 21020 UA and 15623 UA and 11760 UA
- TGK % Control test ([1]; 0.003 mg/ml): 436%
- TGK % Stimulation ([1]; 0.003 mg/ml): 330%
- TGK Fluorescence intensity/Number of cells, Average ([1]; 0.003 mg/ml): 26867 UA
- TGK Fluorescence intensity/Number of cells ([1]; 0.003 mg/ml): 30752 UA and 20672 UA and 23177 UA
- TGK % Control test ([1]; 0.01 mg/ml): 714%
- TGK % Stimulation ([1]; 0.01 mg/ml): 614%
- TGK Fluorescence intensity/Number of cells, Average ([1]; 0.01 mg/ml): 44055 UA
- TGK Fluorescence intensity/Number of cells ([1]; 0.01 mg/ml): 59547 UA and 22164 UA and 50453 UA
- TGK expression in the NHEK cultures (in words) [1]: induce the TGK expression in the NHEK cultures in a dose-dependent fashion

Reference: patent US20170112737A1, “COSMETICS AND PHARMACEUTICAL APPLICATIONS OF GALLIC ACID AND GALLIC ACID DERIVATIVES” (GREENPHARMA, priority 2014, published 2017)
